Source: patent US11897867B2, “6-phenyl-4,5-dihydropyridazin-3(2H)-one derivatives as PDE3A and PDE3B inhibitors for treating cancer” (Bayer Aktiengesellschaft, priority 2017, dated 2024)

Tests used:
[1] = tested on: HeLa cells (cervical cancer); experiment: Cell proliferation measurement (Cell Titer Glo), HeLa; format: cell-based; conditions: Homo sapiens, 72 h treatment, read-out: Anti-proliferation IC50 HeLa (Cervical cancer)
Outline: (§1)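 Cells (1000/well; 500 for HeLa) plated overnight at 37 °C, then exposed to a ≥10-point compound dilution series for 72 h at 37 °C, DMSO 0.3% final as vehicle. Viability read by CellTiter-Glo luminescence; IC50 from 4-parameter fit against untreated wells.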

SK-MEL-3 (melanoma) = experiment: Cell proliferation measurement (Cell Titer Glo), SK-MEL-3; format: cell-based; conditions: Homo sapiens, SK-MEL3, SK-MEL-3 cells, 72 h treatment, read-out: Anti-proliferation IC50 SK-MEL-3 (melanoma)
Outline: as §1

H4 = experiment: Cell proliferation measurement (Cell Titer Glo), H4; format: cell-based; conditions: Homo sapiens, H4 cells, 72 h treatment, read-out: Anti-proliferation IC50 H4
Description: (§2) The antiproliferative activity of the compounds of the general formula (I) was examined in vitro in human cancer cells. For this purpose, 1000 cells (or 500 HeLa cells) were plated in 384-well plates with appropriate growth medium and incubated at 37° C. overnight. After 24 h, the cells on the test plate were treated with the compounds of the general formula (I) as and incubated at 37° C. for 72 h. The compounds were added to the cells by means of an HP D300 digital dispenser in a 10 (or more)-step dilution series. As control, the cells were treated with vehicle (DMSO at 0.3% final concentration). After 72 h, the cells were treated with 20 μl/well of 50% CTG solution in PBS (Promega Cell Titer Glo (catalogue #G755B and G756B)) and incubated at room temperature for 10 min, and luminescence was measured by means of a VICTOR V (Perkin Elmer), in order to determine cell viability at the end of treatment. The percentage effect on cell growth and the IC50 derived therefrom were determined for each test substance using the values from untreated wells (=percent viability). The IC50 values were calculated using a 4-parameter fit.

human full length PDE3B = biological target: T1, human full length PDE3B (Homo sapiens, UniProt Q13370); experiment: PDE3B enzyme inhibition (3H-cAMP Scintillation Proximity Assay); format: biochemical; conditions: PDE3B cell extract from Sf9 cells, 60 min room temperature; read-out: Target IC50 PDE3B IC50
T1 construct: Sf9 cells overexpressing human full length PDE3B; purchased SB Drug Discovery, UK; host or cells: Sf9 cells (cell extract)
Outline: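 SPA with Sf9 cell extract overexpressing human full-length PDE3B, diluted for linear kinetics and <70% substrate turnover, in 50 mM Tris/HCl pH 7.5, 8.3 mM MgCl2, 1.7 mM EDTA, 0.2% BSA. [8-3H]cAMP substrate, 60 min at room temperature, stopped with yttrium SPA beads. IC50 from sigmoidal fit of % activity vs log concentration.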

human full length PDE3A = biological target: T2, human full length PDE3A (Homo sapiens, UniProt Q14432); experiment: PDE3A enzyme inhibition (3H-cAMP Scintillation Proximity Assay); format: biochemical; conditions: PDE3A cell extract from Sf9 cells, 60 min room temperature; read-out: Target IC50 PDE3A IC50
T2 construct: Sf9 cells overexpressing human full length PDE3A; purchased SB Drug Discovery, UK; host or cells: Sf9 cells (cell extract)
Outline: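 Sf9 cell extract overexpressing human full-length PDE3A, diluted for linear kinetics (<70% substrate used), in 50 mM Tris/HCl pH 7.5, 8.3 mM MgCl2, 1.7 mM EDTA, 0.2% BSA. [8-3H]cAMP substrate, 60 min at room temperature, yttrium SPA bead read-out; IC50 from sigmoidal curves of % activity.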

NCI-H1734 = experiment: Cell proliferation measurement (Cell Titer Glo), NCI-H1734; format: cell-based; conditions: Homo sapiens, NCI-H1734 cells, 72 h treatment, read-out: Anti-proliferation IC50 NCI-H1734
Description: as §2

IGR-37 (melanoma) = experiment: Cell proliferation measurement (Cell Titer Glo), IGR-37; format: cell-based; conditions: Homo sapiens, IGR-37 cells, 72 h treatment, read-out: Anti-proliferation IC50 IGR-37 (melanoma)
Description: as §2

T1 sequence (Q13370 whole entry): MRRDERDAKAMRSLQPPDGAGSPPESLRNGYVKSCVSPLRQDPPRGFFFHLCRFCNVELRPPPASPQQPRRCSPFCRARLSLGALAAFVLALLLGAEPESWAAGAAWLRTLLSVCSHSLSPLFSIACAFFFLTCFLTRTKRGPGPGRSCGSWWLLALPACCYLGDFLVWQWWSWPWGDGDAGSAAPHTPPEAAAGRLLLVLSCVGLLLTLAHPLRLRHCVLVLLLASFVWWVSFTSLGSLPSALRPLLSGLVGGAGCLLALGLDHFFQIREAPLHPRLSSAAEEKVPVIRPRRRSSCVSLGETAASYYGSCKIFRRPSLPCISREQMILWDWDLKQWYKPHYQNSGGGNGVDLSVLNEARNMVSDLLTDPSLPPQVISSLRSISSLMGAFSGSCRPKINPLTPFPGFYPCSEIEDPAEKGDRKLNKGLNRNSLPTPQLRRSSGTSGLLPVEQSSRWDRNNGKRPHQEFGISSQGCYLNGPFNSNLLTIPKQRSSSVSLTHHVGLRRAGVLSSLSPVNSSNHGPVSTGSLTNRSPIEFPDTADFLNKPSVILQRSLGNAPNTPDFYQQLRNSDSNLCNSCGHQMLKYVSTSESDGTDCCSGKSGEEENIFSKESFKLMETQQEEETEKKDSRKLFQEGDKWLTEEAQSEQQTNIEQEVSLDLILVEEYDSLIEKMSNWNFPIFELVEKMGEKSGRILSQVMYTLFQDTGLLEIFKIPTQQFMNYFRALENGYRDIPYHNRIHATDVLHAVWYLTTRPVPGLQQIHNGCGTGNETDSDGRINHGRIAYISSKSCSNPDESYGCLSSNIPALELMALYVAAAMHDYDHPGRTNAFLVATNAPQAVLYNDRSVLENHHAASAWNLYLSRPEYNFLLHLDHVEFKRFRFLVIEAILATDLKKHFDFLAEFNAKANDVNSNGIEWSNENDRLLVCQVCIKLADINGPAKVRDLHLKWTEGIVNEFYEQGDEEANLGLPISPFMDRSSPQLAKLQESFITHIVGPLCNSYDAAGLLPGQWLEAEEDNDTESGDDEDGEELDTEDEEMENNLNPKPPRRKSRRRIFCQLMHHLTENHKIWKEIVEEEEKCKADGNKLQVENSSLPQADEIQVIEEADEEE
T2 sequence (Q14432 whole entry): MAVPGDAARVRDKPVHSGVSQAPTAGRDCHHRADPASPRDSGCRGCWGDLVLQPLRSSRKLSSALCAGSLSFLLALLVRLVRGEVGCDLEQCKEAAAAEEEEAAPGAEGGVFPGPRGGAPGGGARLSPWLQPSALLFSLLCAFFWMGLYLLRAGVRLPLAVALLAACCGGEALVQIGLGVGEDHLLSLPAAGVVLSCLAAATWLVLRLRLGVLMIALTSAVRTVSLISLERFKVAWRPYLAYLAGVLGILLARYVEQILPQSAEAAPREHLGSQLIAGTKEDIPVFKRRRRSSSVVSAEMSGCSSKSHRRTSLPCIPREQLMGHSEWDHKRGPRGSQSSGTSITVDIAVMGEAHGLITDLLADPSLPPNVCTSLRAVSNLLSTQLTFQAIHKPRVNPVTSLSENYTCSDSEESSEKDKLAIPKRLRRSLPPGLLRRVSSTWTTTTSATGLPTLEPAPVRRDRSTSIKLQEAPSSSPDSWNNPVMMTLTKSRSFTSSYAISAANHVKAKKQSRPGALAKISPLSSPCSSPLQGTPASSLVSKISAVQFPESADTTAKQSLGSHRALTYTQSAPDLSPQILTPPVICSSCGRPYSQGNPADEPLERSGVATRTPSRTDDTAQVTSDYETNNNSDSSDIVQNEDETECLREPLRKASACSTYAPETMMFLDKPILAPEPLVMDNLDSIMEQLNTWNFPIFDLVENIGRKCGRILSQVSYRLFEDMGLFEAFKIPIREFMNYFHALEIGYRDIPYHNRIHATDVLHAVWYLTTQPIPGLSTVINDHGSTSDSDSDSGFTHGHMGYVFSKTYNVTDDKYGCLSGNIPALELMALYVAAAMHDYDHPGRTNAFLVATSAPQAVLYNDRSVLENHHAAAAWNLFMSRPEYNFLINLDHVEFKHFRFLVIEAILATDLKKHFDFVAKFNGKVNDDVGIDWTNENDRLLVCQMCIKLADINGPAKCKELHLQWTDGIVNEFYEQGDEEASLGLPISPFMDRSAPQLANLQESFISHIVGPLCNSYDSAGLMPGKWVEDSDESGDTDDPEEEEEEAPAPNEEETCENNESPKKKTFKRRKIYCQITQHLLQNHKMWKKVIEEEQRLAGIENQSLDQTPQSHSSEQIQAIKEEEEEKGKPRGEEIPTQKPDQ

Structure (SMILES) | IC50 [1] [nM] | IC50 (SK-MEL-3 (melanoma)) [nM] | IC50 (human full length PDE3B) [nM] | IC50 (human full length PDE3A) [nM] | IC50 (NCI-H1734) [nM] | IC50 (IGR-37 (melanoma)) [nM] | IC50 (H4) [nM]
Cc1cc(C2=NNC(=O)CC2)ccc1-c1ccc(F)cc1 [Example 3, 6-(4′-Fluoro-2-methylbiphenyl-4-yl)-4,5-dihydropyridazin-3(2H)-one] | 4.59 | 8.42 | 150 | 190 | 27.7 | – | 36.6
O=C1CCC(c2cc(F)c(N3CCC(F)(F)C3)c(F)c2)=NN1 [Example 13, 6-[4-(3,3-Difluoropyrrolidin-1-yl)-3,5-difluorophenyl]-4,5-dihydropyridazin-3(2H)-one] | 5.59 | 13.8 | 250 | 310 | 32 | – | 41.1
O=C1CCC(c2cc(F)c(N3CC4CC4C3)c(F)c2)=NN1 (stereo not shown) [Example 14, 6-[4-(3-Azabicyclo[3.1.0]hex-3-yl)-3,5-difluorophenyl]-4,5-dihydropyridazin-3(2H)-one] | 2.16 | 5.84 | 77 | 180 | 18.8 | – | 30.9

Continued, in another order:

IC50 [1] [nM] | IC50 (SK-MEL-3 (melanoma)) [nM] | IC50 (human full length PDE3B) [nM] | IC50 (human full length PDE3A) [nM] | IC50 (NCI-H1734) [nM] | IC50 (IGR-37 (melanoma)) [nM] | Structure (SMILES) | IC50 (H4) [nM]
2.14 | 4.58 | 210 | 120 | – | 4.77 | COCCNc1ccc(C2=NNC(=O)CC2)cc1C(F)(F)F [Example 129, 6-{4-[(2-methoxyethyl)amino]-3-(trifluoromethyl)phenyl}-4,5-dihydropyridazin-3(2H)-one] | –
17.7 | 36.2 | 385 | 620 | – | 43.8 | O=C1CCC(c2ccc(-n3ccc(C(F)(F)F)n3)c(F)c2)=NN1 [Example 131, 6-{3-fluoro-4-[3-(trifluoromethyl)-1H-pyrazol-1-yl]phenyl}-4,5-dihydropyridazin-3(2H)-one] | –
